{"source": "patent US12472272B2", "about": "“Radiolabelled compounds for diagnosis or treatment of prostate-specific membrane antigen- expressing cancer” (PROVINCIAL HEALTH SERVICES AUTHORITY, priority 2019, dated 2025)", "origin": "cited, not measured here", "key": {"tumor": {"test_system": "tumor", "settings": "Kuo et al. 2018, cited from earlier work"}, "[1]": {"test_system": "metastatic prostate cancer", "settings": "cited from earlier work"}}}
{"smiles": "O=C([O-])CN1CCN(CC(=O)[O-])CCN(CC(=O)NCC2CCC(C(=O)N[C@@H](Cc3ccc4ccccc4c3)C(=O)NCCCC[C@H](NC(=O)N[C@@H](CCC(=O)O)C(=O)O)C(=O)O)CC2)CCN(CC(=O)[O-])CC1.[177Lu+3]", "note": "(stereo partly shown) [^177Lu-PSMA-617]", "values": [{"measurement": "tumor uptake", "setting": "tumor; 120 h post-injection", "result": "~8", "unit": "% ID/g"}, {"measurement": "peaked tumor uptake", "setting": "tumor; reported previously", "result": "~15", "unit": "% ID/g"}, {"measurement": "complete response rate", "setting": "[1]; human, in vivo", "result": "< 7", "unit": "%"}, {"measurement": "patients with progressive disease after treatment", "setting": "[1]; human, in vivo", "result": "up to 33%"}, {"measurement": "side effects", "setting": "[1]; human, in vivo", "result": "without severe side effects"}, {"measurement": "patients having >50% reduction in PSA levels", "setting": "[1]; metastatic prostate cancer", "result": "32-60%"}, {"measurement": "objective response", "setting": "[1]; phase 2 Australian study, patients with measurable nodal or visceral disease", "result": 82, "unit": "%"}]}
